What was measured:
AGS = test: Microscopic observations, Hoechst 33342 stain, AGS; format: cell-based, human; settings: at IC50, 24, 48 and 72 h
Description: In order to obtain information about cells and nuclei morphology, fluorescence microscopy was used. Briefly, after the incubation of A172 and AGS with compound 4b (at three time periods, namely 24, 48, and 72 h) cells were stained with Hoechst 33342 dye, which binds to DNA. Phase-contrast observations were also performed. […] Also, the cell membrane should be intact with a visible halo around the cells. In necrotic cells, the nuclei edges tend to be less clearly defined, and Hoechst 33342 results in a decreased fluorescence signal. This effect can be seen in a1,2 (A172) and b1,2 (AGS). […] To visualize morphological changes which occurred in the treated cells, microscopic observations were conducted using Hoechst 33342 stain. It is a blue fluorescent stain which allows observations of nuclei in eukaryotic cells. Also observations in bright fields were performed. Cells were stained according to the manufacturer’s protocol. Briefly, cells were plated in 12-well plates at a density of 1 × 10^5 cells/well and were incubated for 24 h at 37 °C, 5% CO2 in a humidified atmosphere. Next, cells were treated with 4b at an IC50 and further incubated for 24, 48, and 72 h. For microscopic observations cells were collected, washed with PBS and stained for 15 min with 1 µg/mL Hoechst 33342 dye. […]

A172 cell line = test: Comet assay (single-cell gel electrophoresis), A172; format: cell-based, human
Description: Single-cell gel electrophoresis was performed to assess the potential genotoxic effect on AGS and A172 after incubation with compound 4b at IC50. This method is based on the ability of damaged DNA to migrate out of the cell during electrophoresis. After DNA staining (Hoechst 33342), the characteristic “comet tail” could be observed under the fluorescence microscope. The damages in 100 randomly selected cells were visually classified into five groups according to the length of the “comet tail”. Group 0 consisted of cells without damaged DNA, while group 4 contained cells with maximally long tails. Based on this, a group damage index (DI) was calculated. The genotoxic effect was found in both examined cell lines. In the case of the A172 cell line, the DNA degradation level seemed to be independent of the incubation time with compound 4b (DNA damage index (DDI) between 77 and 85 over three incubation periods), whereas for AGS cells, genotoxicity was induced in a time-dependent manner (DDI 63, 107, and 111 after 24, 48, and 72 h, respectively).
The comet assay was performed according to the method of Singh et al. with slight modifications. Slides sterilized in 70% ethanol microscope were covered with thin layer of 1% normal melting agarose and left to solidify in a low-humidity environment. Cells were plated in 12-well plates at a density of 1 × 10^5 cells/well and incubated for 24 h in a cell incubator. Next, compound 4b was added in concentrations equal to the IC50 values obtained after the neutral red uptake assay. After 24, 48, and 72 h incubation, cells were harvested, centrifuged, and resuspended in PBS. […] A total of 100 randomly selected cells were scored, and captured comets were classified based on the comet’s tail length as follows: class 0 contained comets with no damaged DNA; class 1, those with low damage; class 2, those with medium damage; class 3, those with high damage; and class 4, those with very high damage. The damage index (DI) was calculated as follows: DI=0×n0+1×n1+2×n2+3×n3+4×n4, n0,1,2,3,4 —the amount of comets in each class.

S. aureus 43300 = test: Antimicrobial activity assay, microdilution; format: cell-based, Staphylococcus aureus; settings: concentration range from 0.5 µg/mL to 256 µg/mL
Description: (§1) In vitro antimicrobial and antifungal activity was screened using microdilution and modified Richard’s medium. The assay was performed for compounds 4a, 4b, 4c, and 4d with seven reference microbial strains from ATTC (E. coli 25922, S. aureus 43300, K. pneumoniae 700603, A. baumannii 19606, P. aeruginosa 27853, E. faecalis 29212, and C. albicans 10231).
(§2) Seven reference strains from the ATCC collection (Escherichia coli 25922, Staphylococcus aureus 43300, Klebsiella pneumoniae 13883, Acinetobacter baumannii 19606, Pseudomonas aeruginosa 27853, Enterococcus faecalis 29212, and Candida albicans 10231) were used. The assay was performed according to a modified version of Richard et al.’s protocol and ISO standards 20776-1:2019 and 16256:2021 [78, 79]. Microdilution with spectrophotometric measurement was used to calculate MIC50 (minimal inhibitory concentration which decreased the microorganisms’ viability to 50%) values. Briefly, compounds were prepared 100× concentrated in DMSO, and during the whole experiment, they were diluted to 1× with TSB. Serial dilutions of tested compounds were made directly on plates at a concentration range of 0.5 to 256 µg/mL. Microorganisms were incubated for 24 h at 37 °C (bacteria) or 25 °C (yeast) on Petri dishes with TSA. The bacteria/yeast suspensions were prepared at a density 5 × 10^5 CFU/mL (for bacteria) or 0.5–2.5 × 10^5 CFU/mL (for yeast) with TSB. Also, appropriate controls were contained in the experiment: the positive control consisted of a specific strain in TSB, and the negative control was TSB alone. To ensure that used strains were not modified and were still responding to antibacterial/antifungal compounds established by EUCAST, additional tests were conducted with levofloxacin, gentamicin, and amphotericin B. Microplates were incubated on a shaker for 24 h at 37 ± 1 °C or 25 ± 1 °C for the bacteria and yeast strains, respectively. After the incubation, spectrophotometric measurement was performed at 580 nm. MIC50 was calculated by comparing the results obtained for experimental sets with positive controls. Next, 50 µL aliquots of 1% (m/v) TTC solution were added to each well. The plates were incubated on the shaker for 24 h at 37/25 °C. In living microbial cells, colourless TTC is converted into red formazan crystals, which allows for visual observation and MBC/MFC (minimal bactericidal/fungicidal concentration) value assessment.

P. aeruginosa 27853 = test: Antimicrobial activity assay, microdilution; format: cell-based, Pseudomonas aeruginosa; settings: concentration range from 0.5 µg/mL to 256 µg/mL
Description: as §1, §2

E. faecalis 29212 = test: Antimicrobial activity assay, microdilution; format: cell-based, Enterococcus faecalis; settings: concentration range from 0.5 µg/mL to 256 µg/mL
Description: as §1, §2

## Cc1nc(-c2ccccc2)nc(Nc2ccc(F)cc2)c1C=Nc1cccc(Cl)c1 [compound 4b, 5-{[(3-chlorophenyl)imino]methyl}-N-(4-fluorophenyl)-6-methyl-2-phenylpyrimidin-4-amine]
AGS
  cell and nuclei morphology: leads to necrosis
A172 cell line; A172, at IC50, 24 h
  DNA damage index: 77 arbitrary units
A172 cell line; A172, at IC50, 48 h
  DNA damage index: 85 arbitrary units
A172 cell line; A172, at IC50, 72 h
  DNA damage index: 78 arbitrary units
S. aureus 43300
  MIC and MBC/MFC activity: Neither MIC nor MBC/MFC activity was observed
P. aeruginosa 27853
  MIC and MBC/MFC activity: Neither MIC nor MBC/MFC activity was observed
E. faecalis 29212
  MIC and MBC/MFC activity: Neither MIC nor MBC/MFC activity was observed

— publication PMC10889512, “Pyrimidine Schiff Bases: Synthesis, Structural Characterization and Recent Studies on Biological Activities” (International Journal of Molecular Sciences, 2024)
